How the values were obtained:
Format in all cases: in vivo
[1] = tested on: panicum, fall (fall panicum Panicum dichotomiflorum); experiment: Test F pre-/postemergence: panicum, fall
Excerpt: Seeds of plant species selected from corn (Zea mays), soybean (Glycine max), velvetleaf (Abutilon theophrasti), lambsquarters (Chenopodium album), poinsettia, wild (wild poinsettia, Euphorbia heterophylla), pigweed, palmer (palmer pigweed, Amaranthus palmeri), waterhemp (common waterhemp, Amaranthus rudis), surinam grass (Brachiaria decumbens), crabgrass, Brazil (Brazilian crabgrass, Digitaria horizontalis), panicum, fall (fall panicum Panicum dichotomiflorum), crabgrass, large (large crabgrass, Digitaria sanguinalis), foxtail, giant (giant foxtail, Setaria faberii), foxtail, green (green foxtail Setaria viridis), goosegrass (Eleusine indica), ragweed (common ragweed, Ambrosia elatior), barnyardgrass (Echinochloa crus-galli), sandbur (southern sandbur, Cenchrus echinatus), arrowleaf sida (Sida rhombifolia), ryegrass, Italian (Italian ryegrass, Lolium multiflorum), dayflower, VA (Virginia (VA) dayflower, Commelina virginica), field bindweed (Convolvulus arvensis), cocklebur (common cocklebur, Xanthium strumarium), morningglory (Ipomoea coccinea), nightshade (eastern black nightshade, Solanum ptycanthum), kochia (Kochia scoparia), nutsedge, yellow (yellow nutsedge, Cyperus esculentus), johnsongrass (Sorghum halepense), smartweed (ladysthumb smartweed, Polygonum persicaria), and beggarticks (hairy beggarticks, Bidens pilosa), were planted into a silt loam soil and treated preemergence with test chemicals formulated in a non-phytotoxic solvent mixture which included a surfactant. At the same time, plants selected from these crop and weed species and also pigweed (Amaranthus retroflexus), waterhemp_RES1 (ALS/Triazine resistant common waterhemp, Amaranthus rudis) and waterhemp_RES2 (ALS/HPPD resistant common waterhemp, Amaranthus rudis) were planted in pots containing a planting medium comprising spaghnum peat moss, vermiculite, wetting agent and starter nutrients treated with postemergence applications of some of the test chemicals formulated in the same manner. Plants ranged in height from 2 to 18 cm for postemergence treatments (1- to 4-leaf stage).
(§1) Treated plants and controls were maintained in a greenhouse for 14 to 21 days, after which time all species were compared to controls and visually evaluated. Plant response ratings, summarized in Table E, are based on a scale of 0 to 100 where 0 is no effect and 100 is complete control. A dash (-) response means no test result.

[2] = tested on: pigweed, palmer (palmer pigweed, Amaranthus palmeri); experiment: Test E pre-/postemergence: pigweed, palmer; settings: scale 0 to 100
Excerpt: (§2) Seeds of plant species selected from corn (Zea mays), soybean (Glycine max), velvetleaf (Abutilon theophrasti), lambsquarters (Chenopodium album), poinsettia, wild (wild poinsettia, Euphorbia heterophylla), pigweed, palmer (palmer pigweed, Amaranthus palmeri), waterhemp (common waterhemp, Amaranthus rudis), smartweed (ladysthumb smartweed, Polygonum persicaria), surinam grass (Brachiaria decumbens), crabgrass, large (large crabgrass, Digitaria sanguinalis), crabgrass, Brazil (Brazilian crabgrass, Digitaria horizontalis), panicum, fall (fall panicum, Panicum dichotomiflorum), foxtail, giant (giant foxtail, Setaria faberii), foxtail, green (green foxtail, Setaria viridis), goosegrass (Eleusine indica), johnsongrass (Sorghum halepense), ragweed (common ragweed, Ambrosia elation), barnyardgrass (Echinochloa crus-galli), sandbur (southern sandbur, Cenchrus echinatus), arrowleaf sida (Sida rhombifolia), ryegrass, Italian (Italian ryegrass, Lolium multiflorum), dayflower, (VA) (Virginia dayflower, Commelina virginica), field bindweed (Convolvulus arvensis), cocklebur (common cocklebur, Xanthium strumarium), morningglory (Ipomoea coccinea), nightshade (eastern black nightshade, Solanum ptycanthum), kochia (Kochia scoparia), nutsedge, yellow (yellow nutsedge, Cyperus esculentus) and beggarticks (hairy beggarticks, Bidens pilosa) were planted into a silt loam soil and treated preemergence with test chemicals formulated in a non-phytotoxic solvent mixture which included a surfactant. At the same time, plants selected from these crop and weed species were planted in pots containing a growing medium comprising spaghnum peat moss, vermiculite, wetting agent and starter nutrients and treated with postemergence applications of some of the test chemicals formulated in the same manner. Plants ranged in height from 2 to 18 cm for postemergence treatments (1- to 4-leaf stage).
as §1

[3] = tested on: surinam grass (Brachiaria decumbens); experiment: Test E pre-/postemergence: surinam grass; settings: Preemergence, scale 0 to 100
Excerpt: as §2, §1

[4] = tested on: crabgrass, large (large crabgrass, Digitaria sanguinalis); experiment: Test E pre-/postemergence: crabgrass, large; settings: Preemergence, scale 0 to 100
Excerpt: as §2, §1

corn (Zea mays) = experiment: Test E pre-/postemergence: corn; settings: scale 0 to 100
Excerpt: as §2, §1

kochia (Kochia scoparia) = experiment: Test E pre-/postemergence: kochia; settings: Preemergence, scale 0 to 100
Excerpt: as §2, §1

[5] = Preemergence, 16 g ai/ha, scale 0 to 100 (0 no effect, 100 complete control)
[6] = Preemergence, 31 g ai/ha, scale 0 to 100 (0 no effect, 100 complete control)
[7] = Preemergence, 125 g ai/ha, scale 0 to 100
[8] = Postemergence, 8 g ai/ha, scale 0 to 100
[9] = Postemergence, 16 g ai/ha, scale 0 to 100
[10] = Postemergence, 31 g ai/ha, scale 0 to 100
[11] = Postemergence, 62 g ai/ha, scale 0 to 100

SMILES	Plant response rating, Panicum, Fall [1, 5]	Plant response rating, Panicum, Fall [1, 6]	Plant response rating: Pigweed, Palmer ([2]; Preemergence, 16 g ai/ha)	Plant response rating: Pigweed, Palmer ([2]; Preemergence, 31 g ai/ha)	Plant response rating: Pigweed, Palmer ([2]; Preemergence, 62 g ai/ha)	Plant response rating: Pigweed, Palmer ([2]; Preemergence, 125 g ai/ha)	Plant response rating: Surinam Grass ([3]; 16 g ai/ha)	Plant response rating: Surinam Grass ([3]; 31 g ai/ha)	Plant response rating: Surinam Grass ([3]; 62 g ai/ha)	Plant response rating: Surinam Grass ([3]; 125 g ai/ha)	Plant response rating: Crabgrass, Large ([4]; 16 g ai/ha)	Plant response rating: Crabgrass, Large ([4]; 31 g ai/ha)	Plant response rating: Crabgrass, Large ([4]; 62 g ai/ha)	Plant response rating: Crabgrass, Large ([4]; 125 g ai/ha)	Plant response rating: Corn (corn (Zea mays); Preemergence, 16 g ai/ha)	Plant response rating: Corn (corn (Zea mays); Preemergence, 31 g ai/ha)	Plant response rating: Corn (corn (Zea mays); Preemergence, 62 g ai/ha)	Plant response rating: Corn (corn (Zea mays); Preemergence, 125 g ai/ha)	Plant response rating: Kochia (kochia (Kochia scoparia); 16 g ai/ha)	Plant response rating: Kochia (kochia (Kochia scoparia); 31 g ai/ha)	further results
Fc1ccc(-n2nc(Cc3ccnc(C(F)(F)F)c3)c(OCC(F)(F)F)n2)cc1 [Compound 142]	25	65																			Plant response rating, Panicum, Fall [1, 7]: 100
Cc1nn(-c2ccc(F)cc2)nc1Cc1ccnc(C(F)(F)F)c1 [Compound 16, 4-[[2-(4-fluorophenyl)-5-methyl-2H-1,2,3-triazol-4-yl]methyl]-2-(trifluoromethyl)pyridine]			98	98	98	100	0	0	30	35	5	5	90	90	0	0	20	20	20	70	Plant response rating: Pigweed, Palmer ([2]; Preemergence, 8 g ai/ha): 95; Plant response rating: Surinam Grass ([3]; 8 g ai/ha): 0; Plant response rating: Crabgrass, Large ([4]; 8 g ai/ha): 0; Plant response rating: Corn (corn (Zea mays); Preemergence, 8 g ai/ha): 0; Plant response rating: Kochia (kochia (Kochia scoparia); 8 g ai/ha): 0; Plant response rating: Kochia (kochia (Kochia scoparia); 62 g ai/ha): 100; Plant response rating: Kochia (kochia (Kochia scoparia); 125 g ai/ha): 100
Cc1nn(-c2ccc(C(F)(F)F)c(F)c2)nc1Cc1ccnc(C(F)(F)F)c1 [Compound 162]	100	100																			Plant response rating, Panicum, Fall ([1]; Postemergence, 4 g ai/ha, scale 0 to 100): 15; Plant response rating, Panicum, Fall [1, 8]: 20; Plant response rating, Panicum, Fall [1, 9]: 20; Plant response rating, Panicum, Fall [1, 10]: 25; Plant response rating, Panicum, Fall [1, 11]: 30; Plant response rating, Panicum, Fall ([1]; Preemergence, 4 g ai/ha, scale 0 to 100, 0 no effect, 100 complete control): 0; Plant response rating, Panicum, Fall ([1]; Preemergence, 8 g ai/ha, scale 0 to 100, 0 no effect, 100 complete control): 0
Cc1nn(-c2ccc(F)cc2)nc1Oc1ccnc(C(F)(F)F)c1 [Compound 129, 4-[[2-(4-fluorophenyl)-5-methyl-2H-1,2,3-triazol-4-yl]oxy]-2-(trifluoromethyl)pyridine]			80	100	100	100	0	15	15	60	10	80	100	100	0	0	10	10	35	50	Plant response rating: Pigweed, Palmer ([2]; Preemergence, 8 g ai/ha): 30; Plant response rating: Surinam Grass ([3]; 8 g ai/ha): 0; Plant response rating: Crabgrass, Large ([4]; 8 g ai/ha): 0; Plant response rating: Corn (corn (Zea mays); Preemergence, 8 g ai/ha): 0; Plant response rating: Kochia (kochia (Kochia scoparia); 8 g ai/ha): 35; Plant response rating: Kochia (kochia (Kochia scoparia); 62 g ai/ha): 95; Plant response rating: Kochia (kochia (Kochia scoparia); 125 g ai/ha): 95
Cc1nn(-c2ccc(C(F)(F)F)cc2)nc1Cc1ccnc(C(F)(F)F)c1 [Compound 47, 4-[[5-methyl-2-[4-(trifluoromethyl)phenyl]-2H-1,2,3-triazol-4-yl]methyl]-2-(trifluoromethyl)pyridine]			100	100	100	100	15	20	25	40	20	75	100	100	0	15	20	20	25	35	Plant response rating: Pigweed, Palmer ([2]; Postemergence, 250 g ai/ha): 100; Plant response rating: Pigweed, Palmer ([2]; Postemergence, 16 g ai/ha): 70; Plant response rating: Pigweed, Palmer ([2]; Postemergence, 31 g ai/ha): 90; Plant response rating: Pigweed, Palmer ([2]; Postemergence, 62 g ai/ha): 95; Plant response rating: Pigweed, Palmer ([2]; Postemergence, 125 g ai/ha): 100; Plant response rating: Pigweed, Palmer ([2]; Preemergence, 250 g ai/ha): 100; Plant response rating: Surinam Grass ([3]; 250 g ai/ha): 65; Plant response rating: Crabgrass, Large ([4]; 250 g ai/ha): 100; Plant response rating: Corn (corn (Zea mays); Postemergence, 250 g ai/ha): 20; Plant response rating: Corn (corn (Zea mays); Postemergence, 16 g ai/ha): 10; Plant response rating: Corn (corn (Zea mays); Postemergence, 31 g ai/ha): 15; Plant response rating: Corn (corn (Zea mays); Postemergence, 62 g ai/ha): 20; Plant response rating: Corn (corn (Zea mays); Postemergence, 125 g ai/ha): 20; Plant response rating: Corn (corn (Zea mays); Preemergence, 250 g ai/ha): 25; Plant response rating: Kochia (kochia (Kochia scoparia); 62 g ai/ha): 100; Plant response rating: Kochia (kochia (Kochia scoparia); 125 g ai/ha): 100; Plant response rating: Kochia (kochia (Kochia scoparia); 250 g ai/ha): 100
Cc1nn(-c2ccc(F)c(F)c2)nc1Oc1ccnc(C(F)(F)F)c1 [Compound 145]																					Plant response rating, Panicum, Fall [1, 8]: 10; Plant response rating, Panicum, Fall [1, 9]: 25; Plant response rating, Panicum, Fall [1, 10]: 40; Plant response rating, Panicum, Fall [1, 11]: 40; Plant response rating, Panicum, Fall ([1]; Postemergence, 125 g ai/ha, scale 0 to 100): 40
CCCc1nn(-c2ccc(F)cc2)nc1Cc1ccnc(C(F)(F)F)c1 [Compound 153]	5	100																			Plant response rating, Panicum, Fall [1, 7]: 100; Plant response rating, Panicum, Fall ([1]; Preemergence, 250 g ai/ha, scale 0 to 100): 100

Source: patent publication US9302999B2, “Substituted triazoles as herbicides” (E. I. DU PONT DE NEMOURS AND COMPANY, priority 2012, dated 2016)
